Results: patent US20070093392A1 (priority 2005, published 2007)

Test system: gerbils
Settings: in vivo

COc1cc(CNC(=O)CCCC/C=C/C(C)C)ccc1O [capsaicin]
Rodent repellent effect, overall: very effective rodent repellent
